In assay [1] the test system is rGABA-gated Cl− channel. Kind of assay: GABA-Gated Cl Channel Antagonist Radioligand Binding Assay. The arrangement: species or system rat. The following applies: 10 μM single point, [35S]-TBPS, cerebral cortex membrane homogenates. The procedure, abridged:
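Rat cerebral cortex membranes (120 μg protein) incubated 120 min at 22° C with 3 nM […] in 50 mM Na2HPO4/KH2PO4 pH 7.4, 500 mM NaCl; nonspecific binding defined with 20 μM picrotoxinin. Bound label counted after filtration; values are percent inhibition of specific binding at 10 μM compound.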

Assay [2] deals with T1, wild-type Androgen Receptor (AR-wt) (Homo sapiens (Human), UniProt P10275). As to the kind of experiment: LNCaP-AR-wt ANT reporter assay (antagonist mode). It counts as cell-based. The note with it: for IC50 / LNCaP-AR-wt ANT pIC50: antagonist mode, pIC50 = −Log10(IC50 in Molar); for IC50: read-out: LNCaP-AR-wt ANT pIC50 (converted); for Emax: maximum % inhibition of R1881 control response over the tested concentration range, read-out: LNCaP-AR-wt ANT MAX % Inh. A general note: A reporter such as luciferase makes a cellular process visible.
T1 sequence (P10275 whole entry): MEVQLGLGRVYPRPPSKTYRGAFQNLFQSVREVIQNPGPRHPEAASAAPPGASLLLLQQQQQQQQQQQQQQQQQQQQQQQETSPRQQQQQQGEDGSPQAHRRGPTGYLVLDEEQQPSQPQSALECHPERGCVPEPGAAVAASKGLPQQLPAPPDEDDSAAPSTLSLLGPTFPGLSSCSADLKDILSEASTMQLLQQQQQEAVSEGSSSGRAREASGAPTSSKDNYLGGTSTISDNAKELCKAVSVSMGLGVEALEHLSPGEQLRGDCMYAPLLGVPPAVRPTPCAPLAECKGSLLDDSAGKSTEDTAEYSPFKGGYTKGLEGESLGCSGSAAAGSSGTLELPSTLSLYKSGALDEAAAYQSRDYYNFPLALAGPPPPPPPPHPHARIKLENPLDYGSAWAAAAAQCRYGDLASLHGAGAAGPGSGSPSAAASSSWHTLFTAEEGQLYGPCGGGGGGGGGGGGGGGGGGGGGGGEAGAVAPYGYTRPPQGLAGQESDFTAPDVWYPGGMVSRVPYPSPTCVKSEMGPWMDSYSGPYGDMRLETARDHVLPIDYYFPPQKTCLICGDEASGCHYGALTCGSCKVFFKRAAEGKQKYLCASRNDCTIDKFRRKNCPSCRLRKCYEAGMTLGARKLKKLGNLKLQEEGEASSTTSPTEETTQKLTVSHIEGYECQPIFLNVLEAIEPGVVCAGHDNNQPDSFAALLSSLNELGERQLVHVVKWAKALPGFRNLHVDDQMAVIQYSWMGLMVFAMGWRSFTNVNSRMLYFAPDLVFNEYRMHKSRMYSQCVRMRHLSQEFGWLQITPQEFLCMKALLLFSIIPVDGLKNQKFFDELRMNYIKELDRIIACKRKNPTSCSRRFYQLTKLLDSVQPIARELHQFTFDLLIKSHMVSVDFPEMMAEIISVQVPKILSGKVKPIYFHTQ

The target in assay [3] is T1, wild-type Androgen Receptor (AR-wt). As to the kind of experiment: LNCaP-AR-wt AG reporter assay (agonist mode). It counts as cell-based. The following applies: for EC50: read-out: LNCaP-AR-wt AG pEC50 (converted); for Emax: maximum % stimulation (agonist response) over the tested concentration range, read-out: LNCaP-AR-wt AG MAX % Stim.
In assay [4] the target is T2, F876L mutant Androgen Receptor (AR-F876L) (Homo sapiens (Human), UniProt P10275, F877L). Kind of assay: LNCaP-AR-F876L ANT reporter assay (antagonist mode). The note with it: for IC50: read-out: LNCaP-AR-F876L ANT pIC50 (converted); for Emax: maximum % inhibition of R1881 control response over the tested concentration range, read-out: LNCaP-AR-F876L ANT MAX % Inh. It counts as cell-based.
T2 sequence (P10275 whole entry F877L): as the sequence (P10275 whole entry) above, with F877L counted along it

Assay [5] deals with T2, F876L mutant Androgen Receptor (AR-F876L). Kind of assay: LNCaP-AR-F876L AG reporter assay (agonist mode). It counts as cell-based. The note with it: for EC50: read-out: LNCaP-AR-F876L AG pEC50 (converted); for Emax: maximum % stimulation (agonist response) over the tested concentration range, read-out: LNCaP-AR-F876L AG MAX % Stim.
[6] abbreviates: agonist mode, pEC50 = −Log10(EC50 in Molar).
Where [7] appears, read: antagonist mode, pIC50 = −Log10(IC50 in Molar).

Where only a bound is given, the exact number is not on record here.

On to `CN1CC(COc2ccc(N3C(=S)N(c4cnc(C#N)c(C(F)(F)F)c4)C(=O)C34CCC4)cc2)C1` [Cpd 59, 5-[8-[4-[(1-methylazetidin-3-yl)methoxy]phenyl]-5-oxo-7-thioxo-6,8-diazaspiro[3.4]octan-6-yl]-3-(trifluoromethyl)pyridine-2-carbonitrile], for which, in assay [1], the “rGABA-gated Cl− channel % inh @10 μM” value is 16.0%. Further, the figures for the IC50 in assay [2] and in assay [4] (setting [7]) were 135 nM and 56.2 nM, respectively. Also, the Emax is 102% in assay [2], 0% in assay [3], 100% in assay [4] and 0.1% in assay [5]. For the same molecule, the EC50 in assay [3] (setting [6]) and in assay [5] (setting [6]) was greater than 15100 nM in each case.
For the molecule `N#Cc1ncc(N2C(=O)C3(CCC3)N(c3ccc(O[C@@H]4CCN[C@@H](C(F)(F)F)C4)cc3)C2=S)cc1C(F)(F)F` (racemic) [Cpd 106, 5-[5-oxo-7-thioxo-8-[4-[[(2RS,4RS)-2-(trifluoromethyl)-4-piperidyl]oxy]phenyl]-6,8-diazaspiro[3.4]octan-6-yl]-3-(trifluoromethyl)pyridine-2-carbonitrile], the “rGABA-gated Cl− channel % inh @10 μM” value in assay [1] stood at 87.1%. For the same molecule, the figures for the IC50 in assay [2] and in assay [4] (setting [7]) were 174 nM and 219 nM, respectively. Besides, the Emax in assay [2] amounted to 102%; in assay [3] it was 0.1%; in assay [4], 99.7%; in assay [5], 0.7%. Besides, the EC50 in assay [3] (setting [6]) and in assay [5] (setting [6]) was greater than 15100 nM each time.
Take `N#Cc1ncc(N2C(=O)C3(CCC3)N(c3ccc(O[C@H]4CCNC[C@@H]4F)cc3)C2=S)cc1C(F)(F)F` (racemic) [Cpd 95, 5-[8-[(3SR, 4SR)-4-[(3-fluoro-4-piperidyl)oxy]phenyl]-5-oxo-7-thioxo-6,8-diazaspiro[3.4]octan-6-yl]-3-(trifluoromethyl)pyridine-2-carbonitrile]: the “rGABA-gated Cl− channel % inh @10 μM” value in assay [1] was found to be 26.5%. The figures for the IC50 in assay [2] and in assay [4] (setting [7]) were 112 nM and 44.7 nM, respectively. In addition, the Emax in assay [2] came to 101%; in assay [3], 0.1%; in assay [4] it was 99.7%; in assay [5] it was 0.3%. The EC50 in assay [3] (setting [6]) and in assay [5] (setting [6]) was greater than 15100 nM in each case.
Take `N#Cc1ncc(N2C(=O)C3(CCC3)N(c3ccc4c(cnn4C4CCNCC4)c3)C2=S)cc1C(F)(F)F` [Cpd 119, 5-[5-oxo-8-[1-(4-piperidyl)indazol-5-yl]-7-thioxo-6,8-diazaspiro[3.4]octan-6-yl]-3-(trifluoromethyl)pyridine-2-carbonitrile]: the “rGABA-gated Cl− channel % inh @10 μM” value in assay [1] is given as 43.1%. The IC50 in assay [2] was 537 nM; in assay [4] (setting [7]), 195 nM. Besides, the Emax is 102% in assay [2], 0.1% in assay [3], 100% in assay [4] and 2.7% in assay [5]. Also, the EC50 in assay [3] (setting [6]) and in assay [5] (setting [6]) was greater than 15100 nM in each case.
`CN1CCC(Oc2ncc(N3C(=S)N(c4cnc(C#N)c(C(F)(F)F)c4)C(=O)C34CCC4)cn2)CC1` [Cpd 152, 5-[8-[2-[(1-methyl-4-piperidyl)oxy]pyrimidin-5-yl]-5-oxo-7-thioxo-6,8-diazaspiro[3.4]octan-6-yl]-3-(trifluoromethyl)pyridine-2-carbonitrile]: in assay [1], the “rGABA-gated Cl− channel % inh @10 μM” value is given as 15.1%. Moreover, in assay [2], the “LNCaP-AR-wt ANT pIC50” value was determined as 6.38. Besides, the Emax in assay [2] was 101%; in assay [3], 0.2%; in assay [4] it was 99.9%; in assay [5] it was 0.1%. Also, the EC50 in assay [3] (setting [6]) and in assay [5] (setting [6]) was greater than 15100 nM in each case. Moreover, the “LNCaP-AR-F876L ANT pIC50” value in assay [4] (setting [7]) was found to be 6.37.
`CN1CCC(CNC(=O)c2ccc(N3C(=S)N(c4cnc(C#N)c(C(F)(F)F)c4)C(=O)C34CCC4)cc2)CC1` [Cpd 72, 4-[6-[6-cyano-5-(trifluoromethyl)-3-pyridyl]-5-oxo-7-thioxo-6,8-diazaspiro[3.4]octan-8-yl]-N-[(1-methyl-4-piperidyl)methyl]benzamide]: in assay [1], the “rGABA-gated Cl− channel % inh @10 μM” value came out at 20.0%. Moreover, the IC50 was 275 nM in assay [2] and 174 nM in assay [4] (setting [7]). Besides, the Emax in assay [2] was 101%; in assay [3], -0.1%; in assay [4], 100%; in assay [5], 0%. For the same molecule, the EC50 in assay [3] (setting [6]) and in assay [5] (setting [6]) was greater than 15100 nM in each case.
For `N#Cc1ncc(N2C(=O)C3(CCC3)N(c3ccc(OC4CCN(CC(F)(F)F)CC4)nc3)C2=S)cc1C(F)(F)F` [Cpd 66, 5-[5-oxo-7-thioxo-8-[6-[[1-(2,2,2-trifluoroethyl)-4-piperidyl]oxy]-3-pyridyl]-6,8-diazaspiro[3.4]octan-6-yl]-3-(trifluoromethyl)pyridine-2-carbonitrile], in assay [1], the “rGABA-gated Cl− channel % inh @10 μM” value turned out to be 83.0%. For the same molecule, the IC50 in assay [2] was 49 nM; in assay [4] (setting [7]), 45.7 nM. In addition, the Emax was found to be 99% in assay [2], 0.5% in assay [3], 95.5% in assay [4] and 0.9% in assay [5]. In addition, the EC50 in assay [3] (setting [6]) and in assay [5] (setting [6]) was greater than 15100 nM throughout.
Turning to `CNC(=O)N1CCC(CNC(=O)c2ccc(N3C(=S)N(c4cnc(C#N)c(C(F)(F)F)c4)C(=O)C34CCC4)cc2)CC1` [Cpd 73, 4-[[[4-[6-[6-cyano-5-(trifluoromethyl)-3-pyridyl]-5-oxo-7-thioxo-6,8-diazaspiro[3.4]octan-8-yl]benzoyl]amino]methyl]-N-methyl-piperidine-1-carboxamide], the “rGABA-gated Cl− channel % inh @10 μM” value in assay [1] is 80.1%. Also, the figures for the IC50 in assay [2] and in assay [4] (setting [7]) were 501 nM and 224 nM, respectively. Besides, the Emax was determined as 101% in assay [2], 1% in assay [3], 97.6% in assay [4] and 0.5% in assay [5]. The EC50 in assay [3] (setting [6]) and in assay [5] (setting [6]) was greater than 15100 nM in each case.
On to `CN1CCC(C(=O)c2ccc(N3C(=S)N(c4cnc(C#N)c(C(F)(F)F)c4)C(=O)C34CCC4)cc2)CC1` [Cpd 144, 5-[8-[4-(1-methylpiperidine-4-carbonyl)phenyl]-5-oxo-7-thioxo-6,8-diazaspiro[3.4]octan-6-yl]-3-(trifluoromethyl)pyridine-2-carbonitrile], for which the “rGABA-gated Cl− channel % inh @10 μM” value in assay [1] is given as 42.3%. The IC50 in assay [2] was 1100 nM; in assay [4] (setting [7]), 363 nM. Besides, the Emax worked out at 98.3% in assay [2], 0.3% in assay [3], 99.9% in assay [4] and 0.6% in assay [5]. Besides, the EC50 in assay [3] (setting [6]) and in assay [5] (setting [6]) was greater than 15100 nM each time.
As for `CCOC(=O)N1CCN(C(=O)c2ccc(N3C(=S)N(c4cnc(C#N)c(C(F)(F)F)c4)C(=O)C34CCC4)cc2)CC1` [Cpd 31, ethyl 4-[4-[6-[6-cyano-5-(trifluoromethyl)-3-pyridyl]-5-oxo-7-thioxo-6,8-diazaspiro[3.4]octan-8-yl]benzoyl]piperazine-1-carboxylate], the “rGABA-gated Cl− channel % inh @10 μM” value in assay [1] is recorded as 79.0%. Besides, the IC50 in assay [2] is 1290 nM; in assay [4] (setting [7]), 617 nM. Also, the Emax turned out to be 80.3% in assay [2], 0.3% in assay [3], 87.1% in assay [4] and 0.1% in assay [5]. In addition, the EC50 in assay [3] (setting [6]) and in assay [5] (setting [6]) was greater than 15100 nM each time.
In the case of `Cn1cc(N2C(=S)N(c3cnc(C#N)c(C(F)(F)F)c3)C(=O)C23CCC3)ccc1=O` [Cpd 133, 5-(5-(1-methyl-6-oxo-1,6-dihydropyridin-3-yl)-8-oxo-6-thioxo-5,7-diazaspiro[3.4]octan-7-yl)-3-(trifluoromethyl)picolinonitrile], in assay [1], the “rGABA-gated Cl− channel % inh @10 μM” value is listed as −8.5%. Besides, the values for the IC50 in assay [2] and in assay [4] (setting [7]) were 1580 nM and 977 nM, respectively. Further, the Emax in assay [2] came out at 98.3%; in assay [3], 0.7%; in assay [4] it was 99%; in assay [5], 0.6%. Moreover, the EC50 in assay [3] (setting [6]) and in assay [5] (setting [6]) was greater than 15100 nM throughout.
Turning to `N#Cc1ncc(N2C(=O)C3(CCC3)N(c3ccc(OC4CC5CCC(N5)C4F)cc3)C2=S)cc1C(F)(F)F` (stereo not drawn) [Cpd 93, 5-[8-[4-[(4-fluoro-8-azabicyclo[3.2.1]octan-3-yl)oxy]phenyl]-5-oxo-7-thioxo-6,8-diazaspiro[3.4]octan-6-yl]-3-(trifluoromethyl)pyridine-2-carbonitrile], in assay [1], the “rGABA-gated Cl− channel % inh @10 μM” value came out at 74.4%. In addition, the “LNCaP-AR-wt ANT pIC50” value in assay [2] came to 6.77. Moreover, the Emax in assay [2] came out at 105%; in assay [3] it was 0.5%; in assay [4], 102%; in assay [5], 0.2%. Also, the “LNCaP-AR-wt AG pEC50” value in assay [3] (setting [6]) was less than 4.82. Also, the IC50 in assay [4] (setting [7]) is 45.7 nM. Besides, the “LNCaP-AR-F876L AG pEC50” value in assay [5] (setting [6]) was less than 4.82.
